Data taken from publication PMC5085999, “Structural Basis for Differences in Dynamics Induced by Leu Versus Ile Residues in the CD Loop of Kir Channels” (Molecular Neurobiology, 2015).
Positions count from the first letter of the chain named.

Experiments:
Test in all cases: inside-out macropatch dose-response of channel expressed in Xenopus oocytes
Format in all cases: cell-based
Kir2.2 [1] = target: T1, Kir2.2 (Homo sapiens, UniProt Q14500)
T1 construct: gene KCNJ12
T1 sequence (Q14500 1-433): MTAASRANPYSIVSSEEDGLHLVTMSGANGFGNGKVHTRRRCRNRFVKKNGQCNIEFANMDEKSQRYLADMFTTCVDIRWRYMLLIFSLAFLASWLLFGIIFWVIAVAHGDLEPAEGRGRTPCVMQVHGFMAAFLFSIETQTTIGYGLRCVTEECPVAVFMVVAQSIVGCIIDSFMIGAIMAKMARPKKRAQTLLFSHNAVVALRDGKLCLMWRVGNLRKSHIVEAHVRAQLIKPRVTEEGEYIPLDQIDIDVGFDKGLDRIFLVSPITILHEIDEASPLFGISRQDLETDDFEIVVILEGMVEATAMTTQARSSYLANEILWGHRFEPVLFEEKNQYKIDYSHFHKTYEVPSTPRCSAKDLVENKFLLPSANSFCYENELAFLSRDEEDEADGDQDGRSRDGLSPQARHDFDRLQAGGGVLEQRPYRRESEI

Kir2.2 [2] = target: T2, Kir2.2 (Homo sapiens, UniProt Q14500, I223L)
T2 construct: gene KCNJ12
T2 sequence (Q14500 1-433 I223L): T1 sequence (Q14500 1-433) with I223L

Kir2.1 [3] = target: T3, Kir2.1 (Mus musculus, UniProt P35561, L222I)
T3 construct: gene Kcnj2
T3 sequence (P35561 1-428 L222I): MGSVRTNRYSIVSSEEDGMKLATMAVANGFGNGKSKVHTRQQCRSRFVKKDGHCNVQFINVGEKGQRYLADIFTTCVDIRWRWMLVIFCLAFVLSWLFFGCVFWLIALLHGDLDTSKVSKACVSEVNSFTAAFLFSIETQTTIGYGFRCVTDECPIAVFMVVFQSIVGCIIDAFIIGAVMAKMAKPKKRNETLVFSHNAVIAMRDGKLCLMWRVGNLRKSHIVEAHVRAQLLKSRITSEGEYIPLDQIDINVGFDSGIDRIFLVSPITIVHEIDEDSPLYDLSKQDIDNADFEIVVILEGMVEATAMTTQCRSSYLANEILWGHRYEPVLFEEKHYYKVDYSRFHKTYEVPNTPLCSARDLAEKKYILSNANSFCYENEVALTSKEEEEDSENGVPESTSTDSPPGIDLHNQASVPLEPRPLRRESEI

Kir2.1 [4] = target: T4, Kir2.1 (Mus musculus, UniProt P35561)
T4 construct: gene Kcnj2
T4 sequence (P35561 1-428): T3 sequence (P35561 1-428 L222I) with I222L

EC50 (Kir2.2 [1]): 6.14 ± 0.45 µM | EC50 (Kir2.2 [2]): 1.9 ± 0.23 µM | EC50 (Kir2.1 [3]): 14 ± 0.98 µM | EC50 (Kir2.1 [4]): 2.89 ± 0.31 µM
SMILES: CCCCCCCC(=O)OC[C@H](COP(=O)(O)O[C@@H]1[C@H](O)[C@H](O)[C@@H](OP(=O)(O)O)[C@H](OP(=O)(O)O)[C@H]1O)OC(=O)CCCCCCC [diC8 PIP2]
